In a melting point compilation (Tetko et al.; mined from patent text by program, amines drawn as free bases though some values may be those of a salt) one finds melting point data, which are given here for 89 compounds.

Compound `CS(=O)(=O)N(c1cccc(C(=O)Nc2nccs2)c1)C1CN(C(c2ccc(Cl)cc2)c2ccc(Cl)cc2)C1` gave a melting point of 244 °C.

In turn, `CC(C)(C)OC(=O)N1CCC2(CC1)NC(c1nc(-c3ccccc3)c[nH]1)Cc1c2[nH]c2ccccc12` (centres undefined) gave a melting point of 118 to 120 °C.

In turn, `Cc1oc(-c2ccccc2)nc1COc1cccc(CSc2cccc(CCC(=O)O)c2)c1` yielded a melting point of 120 to 121 °C.

As for `O=C(NO)[C@@H](CC(=O)N1CCOCC1)NS(=O)(=O)c1ccc(Oc2ccccc2)cc1`, the melting point was in the range of 161 to 163 °C.

In turn, `CCNc1nc(-c2ccccc2)ncc1[N+](=O)[O-]` had a melting point of 136 to 137 °C.

For the compound `COCCOC(=O)OC[C@@H](O)[C@@H]1CC(c2ccc(-c3ccc(N4C[C@H](Cn5ccnn5)OC4=O)cc3F)cn2)=NO1`, the melting point was determined as 125 °C.

In the case of `COc1nc(C)nc(NC(=O)NS(=O)(=O)OCC(Cl)(Cl)Cl)n1`, the melting point came out at 128 °C.

`CCCc1ccc(OCC(C)O)c2c(=O)cc(C(=O)O)oc12` (centres undefined) yielded a melting point of 134 to 136 °C.

As to `NCc1ccccc1C(=O)N[C@H]1CN(S(=O)(=O)O)C1=O`, the melting point lay in the range of 162 to 165 °C.

Consider `COc1ccc(-c2ccc(C=NO)o2)cc1OC`, for which the melting point fell in the range of 140 to 142 °C.

`O=C1C2=C(CCCC2)C(=O)N1c1cc2c(cc1F)nnn2-c1ccccc1O` registered a melting point of 274 to 275 °C.

`CC1CC(C)CN(CCNc2ccnc3cc(Cl)ccc23)C1` (centres undefined) registered a melting point of 142 to 143 °C.

In turn, `O=C(Nc1cccc2c(=O)cc(-c3nnn[nH]3)oc12)c1ccc2c(c1)CC(COCc1ccc(F)cc1)O2` (centres undefined) displayed a melting point of 229 to 232 °C.

As for `CCC(O)(C#Cc1ncn2c1CN(C)C(=O)c1cc(F)ccc1-2)CC`, the melting point was in the range of 135 to 136 °C.

Compound `O=C(Cc1ccc(Br)cn1)Nc1ccccn1` came in with a melting point of 131 °C.

The compound `COc1ccc(C(=O)C2=C(C)C(=O)C3C=CC=CC3C2=O)cc1` (centres undefined) had a melting point of 150 to 151 °C.

For the compound `CN(C)C1CSC(C#N)(c2ccc(Cl)cc2)SC1` (centres undefined), the melting point lay within 110 to 111 °C.

`CC(C)c1csc(/C=C/c2cccc(N)c2)n1` came in with a melting point of 62 to 63 °C.

Take `CCOC(=O)c1cccc(-c2cc3c(Cl)ncnc3[nH]2)c1`: the melting point was greater than 250 °C.

In turn, `CNc1sc(-c2cccnc2)nc1C` showed a melting point of 84 to 87 °C.

Take `CCCn1nc(C(C)C)c(C(=O)OCc2cccc(C(=O)c3ccccc3)c2)c1Cc1ccc(-c2ccccc2S(N)(=O)=O)c(F)c1`: the melting point fell in the range of 46 to 50 °C.

Compound `COC(=O)C1C(NC(C)=O)CC(=O)OC1C` (centres undefined) registered a melting point of 135 to 136 °C.

As to `COc1ccccc1C(=O)NC1CCCn2c1nc(-c1ccncc1)cc2=O` (racemic), the melting point lay within 155 to 157 °C.

Compound `CCCCCCCCCCCCCCCCCC(=O)NC#N` came in with a melting point of 74 to 75 °C.

Compound `CSc1cc(C(C)(C)C)ccc1O` gave a melting point of 160 °C.

The compound `CN1CCC(C2c3ccccc3CCc3cccnc32)CC1` (centres undefined) displayed a melting point of 111 to 114 °C.

In the case of `CCN(C)C(=O)NS(=O)(=O)c1ccccc1OC(Cl)=CCl`, the melting point was 179 to 180 °C.

`CCNC(=O)c1c(C2CC2)nc(CC)n1Cc1ccc2oc(-c3ccccc3NS(=O)(=O)C(F)(F)F)cc2c1` gave a melting point of 165 to 172 °C.

`O=C(O)[C@H](Cc1ccc(CC(F)(F)C(F)(F)F)cc1)[C@@H](O)c1cccc(Cl)c1` (racemic) had a melting point of 150 to 151 °C.

`CC(=O)c1ccc(N2CCN(Cc3cn4cc(Cl)ccc4n3)CC2)cc1` gave a melting point of 186 to 187 °C.

`O=C(O)CC1=CSCCS1` displayed a melting point of 82 °C.

In turn, `O=C(COc1ccc(Cl)cc1)N1Cc2ccc(C(=O)C(Cl)(Cl)Cl)n2Cc2ccccc21` gave a melting point of 165 to 167 °C.

`CCS(=O)C1CCC2C3CCC4=CC(=O)C=CC4(C)C3(F)C(O)CC21C` (centres undefined) registered a melting point of 247 to 250 °C.

`O=C(c1cccc(Br)c1)C(Br)C(Br)c1cc(Br)ccc1[N+](=O)[O-]` (centres undefined) yielded a melting point of 187 to 188 °C.

The compound `CN1CCC(C2=Nc3ccccc3N(C)c3ccccc32)CC1` registered a melting point of 119 to 121 °C.

Turning to `CN1Cc2c(-c3ncc(CN4CCCCC4)o3)ncn2-c2ccc(F)cc2C1=O`, the melting point is 191 to 193 °C.

`OC1CCCc2nc3ccccc3c(NCc3ccccc3)c21` (centres undefined) returned a melting point of 159 °C.

For the compound `O=C(O)c1cc(CCl)ccc1O`, the melting point lay within 144 to 147 °C.

Regarding `Cc1cc(O)ccc1NCCc1ccccn1`, the melting point was 138 to 140 °C.

`COCCOc1ccc(CCCNS(=O)(=O)c2ccccc2)c(Oc2ncc(C(F)(F)F)cc2Cl)c1`: the melting point was 94 to 95 °C.

As to `C#CCN(Cc1cc2c(=O)[nH]c(CO)nc2cc1Cl)c1ccc(C(=O)OC(C)(C)C)cc1`, the melting point was in the range of 185 to 187 °C.

Turning to `C[C@H](N)C(=O)NC1N=C(C2CCCCC2)c2ccccc2N(C)C1=O` (some centres undefined), the melting point lay within 205 to 206 °C.

As to `Cc1cc(Nc2ccc(Cl)cc2)nc(-c2cccc(Cl)n2)n1`, the melting point was found to be 239 °C.

In the case of `CCc1cc(OCc2nc3ccccc3o2)c(=O)[nH]c1C`, the melting point is 198 to 200 °C.

In turn, `O=C1NCC(Cc2ccccc2Br)O1` (centres undefined) yielded a melting point of 130 to 131 °C.

The compound `CCCC(=O)CC1NC(=O)c2ccsc2-n2cccc21` (centres undefined) returned a melting point of 186 °C.

For the compound `Cn1c(=O)[nH]c2ccsc2c1=O`, the melting point lay in the range of 260 to 262 °C.

`Cc1c(N2C[C@@H](N)[C@@H](C)C2)c(F)c(N)c2c(=O)c(C(=O)O)cn(C3CC3)c12` (relative stereo) displayed a melting point of 214 to 215 °C.

With `O=C1CCC(N2Cc3c(OCc4ccccn4)cccc3C2=O)C(=O)N1` (centres undefined), the melting point fell in the range of 235 to 237 °C.

As for `CON=C(c1ccc(OC(C)(C)C(=O)O)c(C)c1)c1cccs1`, the melting point was 108 °C.

For the compound `Cc1sc2c(c1C)C(c1ccc(Cl)cc1)=N[C@@H](CC(=O)Nc1ccc(N)cc1)c1nnc(C)n1-2`, the melting point lay within 169 to 173 °C.

Compound `O=[N+]([O-])c1ccc(OCCn2ccnc2)cc1` had a melting point of 55 to 57 °C.

In turn, `Cc1nnc(-c2ccc3ncn(-c4cccc(OC(F)(F)F)c4)c3c2)o1` yielded a melting point of 153 to 154 °C.

`CC(C)CCCC(C)NC(=O)Oc1ccc(Oc2ccccc2)cc1Br` (centres undefined) gave a melting point of 64 to 67 °C.

In turn, `CCCN(CCC)C1Cc2cccc3c2N(CCC3)C1` (centres undefined) showed a melting point of 112 to 116 °C.

Compound `COc1ccccc1C1(C(C)C)C(=O)N(C)c2ccccc21` (centres undefined) displayed a melting point of 113 to 115 °C.

Consider `N#Cc1nc(-c2ccc(=O)[nH]c2)c(-c2ccccc2)nc1N`, for which the melting point fell in the range of 243 to 248 °C.

Compound `O=C(Nc1ccc(-n2nc(C(F)(F)F)cc2C(F)(F)F)cc1)c1cc(F)c(F)cc1F` came in with a melting point of 109 to 111 °C.

For `COCCOCC(=O)Nc1cccc2c1C1(COc3cc4c(cc31)OCCO4)C(=O)N2C` (centres undefined), the melting point lay within 122 to 123 °C.

Compound `CCCCCCCCCCCCCCCCCCOc1cc(C(N)=O)cc(N(CC(=O)OCc2ccccc2)CC(=O)OCc2ccccc2)c1` returned a melting point of 112 to 114 °C.

`NC(=O)c1cc(Oc2ccc(C(F)(F)F)cc2Cl)ccc1[N+](=O)[O-]` yielded a melting point of 139 to 143 °C.

As to `CC(C)Oc1ccc(/C=C/C(=O)O)c(Oc2ncc(C(F)(F)F)cc2Cl)c1`, the melting point lay within 138 to 140 °C.

On to `O=C(CCCc1ccccc1)c1cccc(OCc2ccc3ccccc3c2)c1`, for which the melting point lay within 75 to 76 °C.

Turning to `O=C1c2ccccc2C(=O)N1Nc1ccc(Br)cc1`, the melting point lay within 205 to 206 °C.

Turning to `CCC(CC)N(O)C(=O)Nc1ccc(Br)cc1`, the melting point lay in the range of 129 to 131 °C.

For the compound `OCC1OC(n2c(Cl)nc3ccc(Br)cc32)C(O)C1O` (centres undefined), the melting point was 152 to 153 °C.

Consider `COCC1(O)CCN(c2c(F)cc([N+](=O)[O-])cc2F)CC1`, for which the melting point was 84 to 86 °C.

The compound `O=C(O)c1ccccc1-c1ccc(-c2ccc(C(F)(F)F)cc2)o1` had a melting point of 182 to 183 °C.

The compound `COc1ccc(F)cc1C(C)(C)CC(O)(Cn1[nH]c(=O)c2ccccc21)C(F)(F)F` (centres undefined) gave a melting point of 141 to 144 °C.

In turn, `O=C(c1ccccc1)C(Cc1ccc(Cl)cc1)c1cccnn1` (centres undefined) showed a melting point of 140 to 142 °C.

As for `CCOP(=O)(OCC)C(Nc1nc2ccccc2[nH]1)P(=O)(OCC)OCC`, the melting point fell in the range of 169 to 170 °C.

The compound `Cc1nc(C)n2c1CN=C(c1ccccc1Cl)c1cc(Cl)ccc1-2` showed a melting point of 175 to 177 °C.

Compound `O=C(c1cc(-c2ccccc2)c(=O)n2c1-c1ccccc1C2)N1CC(O)C1` had a melting point of 238 to 242 °C.

In the case of `NS(=O)(=O)c1ccc(-c2ccccc2-c2ccc(Cl)cc2)cc1`, the melting point fell in the range of 206 to 207 °C.

In turn, `CCCCCCCCCCNC(=O)C=C(c1ccccc1)c1ccc(N)cc1` had a melting point of 90 to 100 °C.

Take `NCC(O)c1cc(Cl)cc(Cl)n1` (centres undefined): the melting point lay in the range of 117 to 118 °C.

As for `CC(C)(C)c1cc(CCC(CCc2cc(C(C)(C)C)c(O)c(C(C)(C)C)c2)OC(=O)c2ccccc2)cc(C(C)(C)C)c1O`, the melting point was 115 to 116 °C.

In turn, `Cc1nc(N2CCCCC2=O)sc1C(=O)NCc1ccccc1` gave a melting point of 175 to 176 °C.

The compound `CCCCCS(=O)(=O)NC(=O)/C=C/c1ccc(OCC2CCCO2)cc1Oc1ncc(C(F)(F)F)cc1Cl` (centres undefined) returned a melting point of 126 to 128 °C.

`O=C(Cn1c(=O)c(=O)[nH]c2cc([N+](=O)[O-])c(-n3cccc3)cc21)NCc1ccccc1` showed a melting point greater than 300 °C.

`COc1ccc(C(=O)c2c(Cl)cccc2Cl)c(C)c1` returned a melting point of 89 °C.

`COc1ccc(C2SCCCS2)cc1OC`: the melting point fell in the range of 99 to 101 °C.

Take `Cc1cc(N2CCC(=O)CC2)nn2cnnc12`: the melting point is 196 to 199 °C.

As for `CNC(=O)NCCn1c(-c2ccc(CCN3CCOCC3)cc2)csc1=Nc1ccc(F)c(C)c1`, the melting point is 167 to 171 °C.

On to `CNC1(c2cccc(NC(=O)c3cc(OC)c(OC)c(OC)c3)c2)NC=Nc2cc(OC)c(OC)cc21` (centres undefined), for which the melting point lay in the range of 122 to 124 °C.

In turn, `FC(F)(F)c1cc(Cl)c(-n2ncc(-c3ncc[nH]3)n2)c(Cl)c1` gave a melting point of 282 to 283 °C.

The compound `CNC(=O)c1ccnc([N+](=O)[O-])c1` had a melting point of 131 to 133 °C.

Regarding `O=C(CCNC(=O)[C@@H](O)Cc1ccccc1)OCc1ccccc1`, the melting point fell in the range of 34 to 38 °C.

As for `CCOC(=O)C(C)(C)N1COC(C)=C(I)C1=O`, the melting point is 85 to 87 °C.
